Source: patent US20090076067A1, “PHARMACEUTICAL COMPOSITION COMPRISING AZARHODACYANINE COMPOUND AS ACTIVE INGREDIENT” (priority 2005, published 2009)
Where two headings read alike, the source gives them in different places.

Experiments:
[1] = tested on: Leishmania donovani (MHOM/ET/67/L82 strain); assay: Leishmania protozoa proliferation inhibition screening test; format: cell-based; conditions: for Selective toxicity: EC50 rat L6 cells / EC50 leishmania protozoa; for EC50: Leishmania donovani, read-out: EC50 Leishmania donovani
Method: In this experiment, Leishmania donovani (MHOM/ET/67/L82 strain) was used. The protozoa were successively cultured in Syrian Golden hamsters to obtain amastigote. The medium used in the experiment was SM medium having heat-treated fetal bovine serum 10% added, and pH prepared to 5.4. The culture was conducted under CO2 concentration 5% and temperature 37° C.
Either the compound of the invention or a positive control (miltefosine) was dissolved into DMSO to prepare test solution having predefined concentration. To each well of a 96-well culture plate, medium containing predetermined number of protozoa was added and the culture was pre-treated. The concentration of amastigote was determined by CASY cell analyze system (Scharfe GMBH Co., Germany). Subsequently, either test solution containing compound of the invention in predefined concentration or DMSO without compound was added. The test solution was duplicated.
The plate was cultured in an incubator for 72 hours, and the proliferation inhibition activity was examined. The activity was determined as follows. To each well, 10 μL Alamar blue aqueous solution was added, then cultured again for 2 hours. Then the culture plate was mounted on a fluorescence microplate reader (Spectramax Gemeni XS; Molecular Devices Corporation, U.S), and irradiated 536 nm excitation wavelength to determine […] at 588 nm. The leishmania infection rate of the sample containing the test compound and that of the control sample was calculated.
(§1) Using the protozoa infection rate thus obtained, the proliferation inhibition rate was calculated according to the following equation to determine 50% proliferation inhibition concentration (EC50).
(§2) Proliferation inhibition rate(%)={1−(b−a)/(c−a)}×100
a: initial infection rate b: infection rate of test compound solution c: infection rate of the control

[2] = tested on: Plasmodium berghei NK 65 strain; assay: animal or person; format: in vivo; conditions: for Survival days (mean survival days, treatment group minus control group) / Recovery Rate (suppression): 4 days; for Recovery Rate (suppression): P. berghei infected ICR mice
[3] = tested on: Trypanosoma cruzi (Tulahuen C2C4 strain); assay: American trypanosoma protozoa proliferation inhibition screening test; format: cell-based; conditions: for Selective toxicity: EC50 rat L6 cells / EC50 American trypanosoma protozoa; for EC50: Trypanosoma cruzi, read-out: EC50 Trypanosoma cruzi
Method: In this experiment, amastigote and trypomastigote of Trypanosoma cruzi (Tulahuen C2C4 strain) infected to rat L6 cells were used. The medium used in the experiment was prepared as follows: to RPMI 1640 medium containing L6 cells, L-glutamine (200 mM) and fetal bovine serum was added to achieve concentration of 1% and 10%, respectively. The culture was conducted under CO2 concentration 5% and temperature 37° C.
Either the compound of the invention or a positive control (benznidazole) was dissolved into DMSO to prepare test solution having predefined concentration. To each well in a 96-well culture plate, medium containing 5×10^3 protozoa was added and precultured for 48 hours. After replacing the medium, either the test solution containing compound of the invention in predefined concentration or DMSO without compound was added. The test solution was duplicated.
The plate was cultured in an incubator for 96 hours, and the proliferation inhibition activity was examined. The activity was determined as follows. To each well, 50 μL CPRG/Nonidet was added, then left for 2 to 6 hours. Then the culture plate was mounted on an absorption microplate reader to determine absorption at 540 nm. The trypanosoma infection rate of the sample containing the test compound and that of the control sample was calculated.
as §1, §2
a: initial infection rate b: infection rate of the test compound solution c: infection rate of the control

[4] = amastigote, 72 hours, Alamar blue
[5] = Plasmodium berghei, ip, 96 h, read-out: Recovery Rate (suppression)
[6] = dose 25 mg/kg/d intraperitoneally
[7] = Tulahuen C2C4 strain in rat L6 cells, 96 hours, CPRG/Nonidet

| Compound | Selective toxicity [1] | EC50 [1, 4] | inhibition in vivo at 10 mg/kg/day [2, 5] | inhibition in vivo at 25 mg/kg/day [2, 5] | Survival days (mean survival days, treatment group minus control group) [2, 6] | Selective toxicity [3] | EC50 [3, 7] | EC50 Leishmania donovani [1, 4] | EC50 Trypanosoma cruzi [3, 7] | Recovery Rate (suppression) [2, 6] | also measured |
| --- | --- | --- | --- | --- | --- | --- | --- | --- | --- | --- | --- |
| CCN1C(=O)/C(=C2\Sc3ccccc3N2C)S/C1=N\c1sc2cc(Cl)ccc2[n+]1C [Compound A-1] | 299 | 0.127 µg/mL | 54.1% | 62.7% | 2.0 days |  |  |  |  |  |  |
| CCN1C(=O)/C(=C2\C=Cc3ccccc3N2C)S/C1=N\c1sc2cc(Cl)ccc2[n+]1C [Compound A-2] | 2800 | 0.002 µg/mL | 54.6% |  |  | 18 | 0.31 µg/mL |  |  |  |  |
| CCN1C(=O)/C(=c2/s/c(=C3/C=CC=CN3C)c(=O)n2CC)S/C1=N\c1sc2cc(Cl)ccc2[n+]1C [Compound B-2] |  | 0.249 µg/mL | 79.8% | 97.1% | 19.3 days |  |  |  |  |  | inhibition in vivo at 20 mg/kg/day [2, 5]: 97.4%; inhibition in vivo at 40 mg/kg/day [2, 5]: 99.1% |
| CCN1C(=O)/C(=c2/s/c(=C3/SCCN3C)c(=O)n2CC)S/C1=N\c1sc2cc(Cl)ccc2[n+]1C [Compound B-12] | 41 | 0.167 µg/mL |  | 88.4% |  | 7 | 0.98 µg/mL |  |  |  |  |
| CCN1C(=O)/C(=c2/s/c(=C3/C=CC=CN3C)c(=O)n2CC)S/C1=N\c1sc2cc(OC)ccc2[n+]1C [Compound B-28] |  |  |  |  |  |  |  | 0.037 µg/mL | 0.314 µg/mL | 98.3% |  |
| CCN1C(=O)/C(=c2/s/c(=C3/SCCN3C)c(=O)n2CC)S/C1=N\c1sc2cc(OC)ccc2[n+]1C [Compound B-29] |  |  |  |  |  |  |  | >0.04 µg/mL | 0.091 µg/mL | 95.0% |  |
| CCN1C(=O)/C(=c2/s/c(=C3/C=CC=CN3C)c(=O)n2CC)S/C1=N\c1sc2ccccc2[n+]1C [Compound B-30] |  |  |  |  | 16.0 days |  |  | 0.11 µg/mL | 0.74 µg/mL | 96.4% | Recovery Rate (suppression) ([2]; dose 10 mg/kg/d intraperitoneally): 70.8%; Recovery Rate (suppression) ([2]; dose 20 mg/kg/d intraperitoneally): 92.4%; Recovery Rate (suppression) ([2]; dose 40 mg/kg/d intraperitoneally): 97.8% |
| CCN1C(=O)/C(=c2/s/c(=C3/SCCN3C)c(=O)n2CC)S/C1=N\c1sc2cc(F)ccc2[n+]1C [Compound B-33] |  |  |  |  | 8.7 days |  |  | 0.2015 µg/mL | 0.66 µg/mL | 70.5% |  |
| CCn1c(=O)/c(=C2\SCCN2C)s/c1=C1\S/C(=N\c2sc3cc(Cl)ccc3[n+]2C)N(C(C)C)C1=O [Compound B-37] |  |  |  | 94.5% |  | 3 | 0.479 µg/mL |  |  |  |  |
| CN1/C(=c2\s/c(=C\c3cccc[n+]3CCC(=O)O)n(CC3CO3)c2=O)Sc2ccccc21 (stereo not shown) [Compound S-3, reference compound] | >170 |  |  |  |  |  |  |  |  |  | EC50 ([1]; 72 h): 0.53 µg/mL; EC50 ([3]; TULAHUEN, L6, 96 h): > 30 µg/mL; inhibition in vivo at 5 mg/kg/day [2, 5]: 29.8%; Survival days (mean survival days, treatment group minus control group) ([2]; dose 5.0 mg/kg/d intraperitoneally): 0 days |
